Experimental data as given in paper PMC9457533, “Study on Metronidazole Acid-Base Behavior and Speciation with Ca^2+ for Potential Applications in Natural Waters” (Molecules, 2022).
“And” between values parts separate entries of the source, which are not always exact repeats. Equal entries are not always repeated.

Experiments:
[1] = Speciation simulation of MNZ under sea water conditions; conditions: pH = 8.1, I = 0.7 mol L^-1, t = 25 °C
Procedure: In order to assess the relevance of the Ca^2+ complex in sea water conditions, the average concentrations of MNZ (L), Ca^2+, Mg^2+, and other divalent cations such as Cu^2+ and Zn^2+, were considered. With the use of the thermodynamic data here determined, it is possible to carry out simulations in sea water conditions. More in detail, the protonation constants of L and the stability constants of Ca^2+-L complex species were calculated by data in Table 3 at I = 0.7 mol L^−1, i.e., the mean ionic strength of sea water. For Cu^2+-L and Zn^2+-L complexes, data of formation constants determined by us and not yet published were used. […] Formation constant values of Cu^2+- and Zn^2+-L species under sea water conditions, belonging to our unpublished study, are summarized in the Supplementary Materials.
(§1) The protonation constant of MNZ (L), formation constant values of Ca^2+(M)-MNZ (L), and titration parameters (analytical concentration of the reagents, standard potential E^0, junction potential) were determined by using BSTAC and STACO programs. LIANA program has provided the parameters characterizing the dependence of the protonation and formation constant values on the temperature and ionic strength. More details on software are present in ref. [59]. ^1H NMR data were processed by HypNMR software, which allows for calculating protonation and formation constant values and the individual chemical shift of species through the observed signals and assuming fast mutual exchange in the NMR time scale. UV-Vis data are processed by the HypSpec program, which allows refining of the protonation and formation constant as well as the molar absorption coefficient values (ε) of the species. The speciation diagrams and the formation percentage of the species are determined by the Hyss program.

[2] = Distribution diagram of MNZ species vs pH; type: physicochemical; conditions: t = 25 °C, I = 0.15 mol L^-1, CL = 2 mmol L^-1, 4 ≤ pH ≤ 10
Procedure: as §1

[3] = Dependence of Ca^2+-MNZ formation constant on ionic strength (Debye-Hückel type equation); type: physicochemical; conditions: Ca + L + H = CaLH, t = 25 °C, NaCl
From the text: (§2) The choice to carry out the experiments at various ionic strengths made it possible to study the dependence of the values of the protonation and formation constants on the ionic strength, expressed by a Debye-Hückel type equation, reported below: (5) logβ=logβ^T − 0.51 z* I/1 + 1.5 I + CI where β^T is the protonation constant at infinite dilution, z* is the parameter that refers to the charges present in the solution corresponding to ∑z^2reagents − ∑z^2products, and C refers to the empirical parameter that depends on the stoichiometric coefficients and on the charges. Using Equation (5) and equilibrium constants at various ionic strength values, the formation constants extrapolated to I = 0 mol L^−1, together with the empirical parameter C, were obtained.
The protonation constant of MNZ (L), formation constant values of Ca^2+(M)-MNZ (L), and titration parameters (analytical concentration of the reagents, standard potential E^0, junction potential) were determined by using BSTAC and STACO programs. LIANA program has provided the parameters characterizing the dependence of the protonation and formation constant values on the temperature and ionic strength. […] The speciation diagrams and the formation percentage of the species are determined by the Hyss program.

[4] = Dependence of protonation constants on ionic strength (Debye-Hückel type equation); type: physicochemical; conditions: t = 25 °C, NaCl; for log^Tβ (constant at infinite dilution): extrapolated to I = 0 mol L^-1
From the text: as §2, §1

[5] = Distribution diagram of Ca^2+-MNZ system vs pH; type: physicochemical; conditions: I = 0.15 mol L^-1, CL = 2 mmol L^-1, CCa = 1 mmol L^-1, 4 ≤ pH ≤ 10
Procedure: as §1

[6] = Potentiometric titrations: formation constant of Ca^2+-MNZ species (CaLH) in NaCl; type: physicochemical; conditions: for logK^CaLH: Ca + LH = CaLH
Procedure: To investigate the interaction between MNZ and Ca^2+, various potentiometric titrations were also performed on solutions containing different metal/ligand ratios. The reactions related to formation constants are indicated below, where the charges are omitted for simplicity and MNZ was indicated as L:Ca + L + rH = MLHr β^MLH^r(3) Ca + LHr = MLHr K^MLH^r(4)
Hydrolysis constant values of Ca^2+ species at various temperatures and ionic strength in NaCl, taken into account in the calculations relating to the M-L system, are reported in Supplementary Material. The most accurate speciation model is chosen by evaluating several factors, which are the statistical parameters standard and mean deviation, the formation percentages of the considered species, and the simplicity of the model. Based on potentiometric results, several computational tests were carried out considering different speciation models.
The potentiometric titrations were employed by Metrohm-Titrando 809 automated potentiometer with a combined glass electrode ORION, type Ross 8102SC and a Metrohm Dosino 800 automatic dispenser. The titrations were performed in cells with a capacity of 25 mL, characterized by a double wall inside which thermostated water circulates. The cells were connected to a thermostat model D1-G Haake. During the measurements, pure N2 was bubbled to avoid CO2 and O2 in solution. The system is interfaced to a PC through the Metrohm TIAMO 2.0 software, which automatically acquires the mL/mV pairs. It can control several parameters, such as e.m.f. stability, titrant delivery, and data acquisition. Estimated accuracy of this apparatus is ±0.15 mV and ±0.002 mL for e.m.f. and for readings of titrant volume. The acid-base titrations were carried out first on 25 mL solutions containing L, HCl, and NaCl as supporting electrolytes at different temperatures and ionic strength conditions. […] The solutions were titrated using standard NaOH solution. A calibration was associated with each measurement by titration with NaOH of a solution containing HCl, NaCl, and H2O, in order to calculate the standard electrode potential (E^0) and the pKw values.
as §1

[7] = CL = 8·10^-10 mol L^-1, CZn = 1.5·10^-9 mol L^-1

percentage of LH species ([1]; CL = 8·10^-10 mol L^-1): 22% | percentage of CaLH species ([1]; CL = 8·10^-10 mol L^-1, CCa = 0.01 mol L^-1): 29% | percentage of CuL species ([1]; CL = 8·10^-10 mol L^-1, CCu = 4·10^-5 mol L^-1): 10% | percentage of ZnL species [1, 7]: 4% | percentage of ZnLOH species [1, 7]: 35% | maximum ligand fraction of the mono-protonated species [2]: over 0.9 | C (empirical parameter for dependence on ionic strength, Equation (5)) [3]: 1.0(2) | log^Tβ (constant at infinite dilution) ([3]; extrapolated to I = 0 mol L^-1): 15.0(2) | C (empirical parameter for dependence on ionic strength, Equation (5)) ([4]; L + 2H = LH2): 1.16(6) | log^Tβ (constant at infinite dilution) ([4]; L + 2H = LH2): 14.4(1) | C (empirical parameter for dependence on ionic strength, Equation (5)) ([4]; L + H = LH): 0.7(2) ^1 | log^Tβ (constant at infinite dilution) ([4]; L + H = LH): 12.0(3) ^1 | maximum metal fraction of CaLH species ([5]; t = 25 °C): 0.4 | maximum metal fraction of CaLH species ([5]; t = 37 °C): over 0.1 | logβ^CaLH ([6]; Ca + L + H = CaLH, t = 15 °C, I = 0.16 mol L^-1 NaCl): 14.06(11) ^4, 5 | logβ average value ([6]; Ca + L + H = CaLH, t = 25 °C, I = 0.15 mol L^-1, average of UV, potentiometry): 14.16(7) | logβ^CaLH ([6]; Ca + L + H = CaLH, t = 25 °C, I = 0.5 mol L^-1 NaCl): 15.00(2) | logβ^CaLH ([6]; Ca + L + H = CaLH, t = 25 °C, I = 0.98 mol L^-1 NaCl): 14.60(5) ^6 | logβ^CaLH ([6]; Ca + L + H = CaLH, t = 37 °C, I = 0.15 mol L^-1 NaCl): 13.56(8) ^7 | logK^CaLH ([6]; t = 15 °C, I = 0.16 mol L^-1 NaCl): 2.06 ^5 | logK^CaLH ([6]; t = 25 °C, I = 0.16 mol L^-1 NaCl (text: 0.15)): 2.49 ^5 | logK^CaLH ([6]; t = 25 °C, I = 0.5 mol L^-1 NaCl): 2.49 | logK^CaLH ([6]; t = 25 °C, I = 0.98 mol L^-1 NaCl): 2.38 ^6 | logK^CaLH ([6]; t = 37 °C, I = 0.15 mol L^-1 NaCl): 1.68 and 1.68 ^7
Compound: Cc1ncc([N+](=O)[O-])n1CCO [MNZ, 2-Methyl-5-nitroimidazole-1-ethanol]
